From patent US20250213701A1, “MEDICAMENT FOR TREATING HUMAN TUMOR BASED ON ERF3A-TARGETING PROTEOLYSIS MECHANISM” (SUZHOU DEGEN BIO-MEDICAL CO., LTD., priority 2022, published 2025)

How the values were obtained:
Type in all cases: cell-based
[1] = target: T1, GSPT1 (eRF3a) (Homo sapiens, UniProt P15170+Q96SW2); experiment: Western blot assay in HepG2 cells: GSPT1 (eRF3a); conditions: different concentrations at 24 h (FIG. 10)
T1 construct: The downregulation of SRD5A3 and GSPT1 (eRF3a) proteins in PC-3 and HepG2 cells by C59; endogenous in cells; host or cells: 22Rv1, PC-3, HepG2
Description: Example 84: Western Blot Assay of Compound C59 in 22Rv1, PC-3, and HepG2 Cells
(1) Materials: 22Rv1, PC-3, and HepG2 cell, anti-SRD5A1 antibody (ab167606), anti-SRD5A2 antibody (ab124877), anti-SRD5A3 antibody (PA5-107029), anti-androgen receptor (AR) antibody (CST, No. 5153), anti-GSPT1 antibody (Abcam, ab234433), anti-GADPH antibody (CST, No. 5174), anti-c-Myc antibody (CST, No. 8583), anti-α-tublin antibody (CST, No. 2125), anti-rabbit IgG, HRP-linked antibody (CST, No. 7074), electrophoresis device and membrane transfer device (LIUYI, BEIJING; DYCZ-24DN)
Cell seeding: 22Rv1 (Cell Bank of the Chinese Academy of Sciences, TCHu100), PC-3 (Cell Bank of the Chinese Academy of Sciences, SCSP-532) and HepG2 cells (Cell Bank of the Chinese Academy of Sciences, TCHu72) were subcultured and trypsinized to prepare 6×10^5 cells/mL suspensions, seeded on 6-well plates (3 mL/well), and cultured overnight in a cell incubator at 5% CO2 and 37° C. […]
Protein quantification: The protein was quantified using a BCA protein quantification kit. […]
Western immunoblot assay (or Western blot, WB): SDS-PAGE gel at a proper concentration was prepared according to the molecular weight of the target protein: for example, the concentration of the separation gel was 8% and the concentration of the stacking gel was 5%. The loading volume was adjusted according to the protein quantification results. […]

[2] = tested on: U251 cells; experiment: Anti-proliferative toxicity of C63 in tumor cell lines (CCK8): U251; conditions: Homo sapiens, U-251, 72 h, 3 days, read-out: Inhibition rate
Description: (§1) Example 83: Detection of Anti-Proliferative Toxicity of C63 in Some Tumor Cell Lines
(§2) U251 cells (purchased from the Cell Bank of the Chinese Academy of Sciences, Cat. No. TCHu58) were subcultured in a culture medium (DMEM medium+1% penicillin-streptomycin dual-antibiotic solution+10% fetal bovine serum) in an incubator at 5% carbon dioxide and 37° C.
U251 cells were seeded at 2000 cells/well (90 μL) on a 96-well plate and cultured for 24 h.
(§3) 10 mM compound stock solutions were prepared in DMSO.
(§4) The compound stock solution was diluted with DMSO to give DMSO solutions 1-9 at concentrations of 0 μM, 2500 μM, 500 μM, 100 μM, 20 μM, 4 μM, 0.8 μM, 0.16 μM, and 0.032 μM.
(§5) 2 μL of each of solutions 1-9 was added to 98 μL of the medium to give mixed solutions 11-19 of the compound and the medium.
(§6) 10 μL of each of solutions 11-19 was added to the above cell seed solution to give a total volume of 100 μL (90 μL+10 μL).
(§7) The concentrations of the compound in the wells were 0 μM, 5.0 μM, 1.0 μM, 0.2 μM, 0.04 μM, 0.008 μM, 0.0016 μM, 0.00032 μM, and 0.000064 μM. All concentrations were in triplicate.
(§8) After the above-treated cells were cultured for 3 days, 10 μL of the CCK8 solution (DOJINDO, Cat. No. PF725) was added to each well. The plate was incubated in an incubator at 37° C. for 1-4 h and then detected on a microplate reader for the reading at 450 nm.

[3] = tested on: BT-549 cells; experiment: Anti-proliferative toxicity of C63 in tumor cell lines (CCK8): BT-549; conditions: Homo sapiens, 72 h, 3 days, read-out: Inhibition rate
Description: as §1
as §2, with “BT-549” for “U251”, “TCHu93)” for “TCHu58)”, “(RPMI-1640” for “(DMEM”, “solution++10%” for “solution+10%”, “serum+0.01 mg/mL recombinant human insulin)” for “serum)”
BT-549 cells were seeded at 5000 cells/well (90 μL) on a 96-well plate and cultured for 24 h.
as §3, §4, §5, §6, §7, §8

[4] = tested on: Hep 3B2.1-7 cells; experiment: Anti-proliferative toxicity of C63 in tumor cell lines (CCK8): Hep 3B2.1-7; conditions: Homo sapiens, 72 h, 3 days, read-out: Inhibition rate
Description: as §1
Hep3B2.1-7 cells (purchased from the Cell Bank of the Chinese Academy of Sciences, Cat. No. TCHu106) were subcultured in a culture medium (MEM medium+1% penicillin-streptomycin dual-antibiotic solution+10% fetal bovine serum) in an incubator at 5% carbon dioxide and 37° C.
Hep 3B2.1-7 cells were seeded at 2000 cells/well (90 μL) on a 96-well plate and cultured for 24 h.
as §3, §4, §5, §6, §7, §8

T1 sequence (P15170 1-637 isoform P15170-3): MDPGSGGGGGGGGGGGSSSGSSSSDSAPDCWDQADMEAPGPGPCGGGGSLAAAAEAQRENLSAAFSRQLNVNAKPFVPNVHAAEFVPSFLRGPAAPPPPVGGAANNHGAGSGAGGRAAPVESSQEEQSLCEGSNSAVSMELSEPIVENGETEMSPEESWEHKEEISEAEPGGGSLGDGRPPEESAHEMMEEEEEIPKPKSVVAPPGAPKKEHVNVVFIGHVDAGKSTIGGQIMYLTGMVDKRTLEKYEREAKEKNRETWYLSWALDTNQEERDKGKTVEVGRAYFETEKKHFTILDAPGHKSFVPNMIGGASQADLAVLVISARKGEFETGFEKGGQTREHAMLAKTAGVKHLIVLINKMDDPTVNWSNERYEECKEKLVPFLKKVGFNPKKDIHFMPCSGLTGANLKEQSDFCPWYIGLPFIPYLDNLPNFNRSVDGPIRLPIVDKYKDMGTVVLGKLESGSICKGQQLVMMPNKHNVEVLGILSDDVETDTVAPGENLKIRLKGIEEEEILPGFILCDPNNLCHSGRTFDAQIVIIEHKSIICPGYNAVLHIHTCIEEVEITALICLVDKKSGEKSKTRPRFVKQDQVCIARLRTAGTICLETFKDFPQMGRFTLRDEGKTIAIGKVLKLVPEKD
T1 sequence (Q96SW2 whole entry): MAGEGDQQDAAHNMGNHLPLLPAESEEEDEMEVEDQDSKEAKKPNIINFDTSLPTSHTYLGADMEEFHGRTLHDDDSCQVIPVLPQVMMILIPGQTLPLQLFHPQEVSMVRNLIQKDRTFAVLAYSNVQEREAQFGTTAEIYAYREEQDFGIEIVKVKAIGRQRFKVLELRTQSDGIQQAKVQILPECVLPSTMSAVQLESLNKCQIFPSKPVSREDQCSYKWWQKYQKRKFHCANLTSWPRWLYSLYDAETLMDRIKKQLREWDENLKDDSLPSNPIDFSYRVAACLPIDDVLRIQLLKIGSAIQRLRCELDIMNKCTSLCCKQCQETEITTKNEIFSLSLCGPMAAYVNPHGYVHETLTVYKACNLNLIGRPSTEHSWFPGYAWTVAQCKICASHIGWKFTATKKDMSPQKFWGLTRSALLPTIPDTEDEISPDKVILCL
T1 sequence (Q16531 whole entry partner): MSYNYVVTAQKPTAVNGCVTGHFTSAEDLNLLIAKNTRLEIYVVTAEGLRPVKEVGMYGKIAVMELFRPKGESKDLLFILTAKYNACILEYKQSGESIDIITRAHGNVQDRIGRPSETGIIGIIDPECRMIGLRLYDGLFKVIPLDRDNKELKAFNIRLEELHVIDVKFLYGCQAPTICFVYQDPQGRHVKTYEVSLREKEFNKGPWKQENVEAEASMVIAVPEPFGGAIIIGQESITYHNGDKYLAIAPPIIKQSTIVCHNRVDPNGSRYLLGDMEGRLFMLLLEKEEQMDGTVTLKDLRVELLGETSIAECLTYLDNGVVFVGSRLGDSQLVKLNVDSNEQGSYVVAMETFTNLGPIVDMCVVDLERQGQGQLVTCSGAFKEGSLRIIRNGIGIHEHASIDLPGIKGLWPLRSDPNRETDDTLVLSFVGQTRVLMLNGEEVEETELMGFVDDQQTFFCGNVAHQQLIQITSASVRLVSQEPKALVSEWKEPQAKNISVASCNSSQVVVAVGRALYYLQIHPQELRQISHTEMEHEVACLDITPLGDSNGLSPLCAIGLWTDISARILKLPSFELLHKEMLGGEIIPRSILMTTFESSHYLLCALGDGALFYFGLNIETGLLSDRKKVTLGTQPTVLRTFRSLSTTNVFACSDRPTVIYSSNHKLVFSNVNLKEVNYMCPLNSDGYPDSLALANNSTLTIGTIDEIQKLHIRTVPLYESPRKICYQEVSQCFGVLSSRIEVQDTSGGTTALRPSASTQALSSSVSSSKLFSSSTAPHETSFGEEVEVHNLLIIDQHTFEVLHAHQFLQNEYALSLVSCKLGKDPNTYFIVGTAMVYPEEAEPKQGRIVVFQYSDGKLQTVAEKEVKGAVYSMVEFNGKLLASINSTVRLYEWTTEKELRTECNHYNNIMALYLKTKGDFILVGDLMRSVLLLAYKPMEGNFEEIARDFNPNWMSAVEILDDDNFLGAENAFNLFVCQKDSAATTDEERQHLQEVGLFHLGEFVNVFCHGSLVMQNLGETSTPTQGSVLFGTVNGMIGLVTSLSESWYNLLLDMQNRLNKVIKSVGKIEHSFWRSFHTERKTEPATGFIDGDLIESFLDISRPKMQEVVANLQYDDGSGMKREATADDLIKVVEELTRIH

With `C[C@]12C=CC(=O)N[C@@H]1CC[C@@H]1[C@@H]2CC[C@]2(C)[C@@H](C(=O)Nc3cccc(N[C@@H]4CCC[C@@H](Nc5cccc6c5C(=O)N(C5CCC(=O)NC5=O)C6=O)C4)c3)CC[C@@H]12` (stereo partly drawn) [C59, N-(3-(N—(N-(4-(2-(3-(2,6-dioxopiperidine))-isoindole-1,3-dione))-1R,3R-cyclohexanediamine))phenyl)-3-oxo-4-aza-5α-androst-1-ene-17β-carboxamide] the “downregulation of GSPT1 (eRF3a) protein (Western blot)” value [1] was “downregulation”.

For `C[C@]12C=CC(=O)N[C@@H]1CC[C@@H]1[C@@H]2CC[C@]2(C)[C@@H](C(=O)Nc3cccc(N[C@@H]4CCC[C@@H](Nc5cccc6c5C(=O)N([C@H]5CCC(=O)NC5=O)C6=O)C4)c3)CC[C@@H]12` [C63, N-(3-(N—(N-(4-(2-(3S-(2,6-dioxopiperidine))-isoindole-1,3-dione))-1R,3R-cyclohexanediamine))phenyl)-3-oxo-4-aza-5α-androst-1-ene-17β-carboxamide], the inhibition at 64 pM ([2]; 0.000064 μM) was 22%, the inhibition at 0.00032 µM ([2]; 0.000320 μM) was 21.7% and the inhibition at 0.0016 µM ([2]; 0.001600 μM) was 53.4%. The inhibition at 0.008 µM ([2]; 0.008000 μM) was 67.8%, the inhibition at 0.04 µM ([2]; 0.040000 μM) was 69% and the inhibition at 0.2 µM ([2]; 0.200000 μM) was 71.7%. The inhibition at 1 µM ([2]; 1.000000 μM) was 72.2%, the inhibition at 5 µM ([2]; 5.000000 μM) was 72.2% and the inhibition at 64 pM ([3]; 0.000064 μM) was 29.3%. It also gave an inhibition at 0.00032 µM ([3]; 0.000320 μM) of 28%, an inhibition at 0.0016 µM ([3]; 0.001600 μM) of 77.5% and an inhibition at 0.008 µM ([3]; 0.008000 μM) of 84.3%. The inhibition at 0.04 µM ([3]; 0.040000 μM) was 84.6%, the inhibition at 0.2 µM ([3]; 0.200000 μM) was 85.6% and the inhibition at 1 µM ([3]; 1.000000 μM) was 84.3%. It also gave an inhibition at 5 µM ([3]; 5.000000 μM) of 87.5%, an inhibition at 64 pM ([4]; 0.000064 μM) of 77.5% and an inhibition at 0.00032 µM ([4]; 0.000320 μM) of 90.6%. It also gave an inhibition at 0.0016 µM ([4]; 0.001600 μM) of 90.2%, an inhibition at 0.008 µM ([4]; 0.008000 μM) of 90.4% and an inhibition at 0.04 µM ([4]; 0.040000 μM) of 90.7%. It also gave an inhibition at 0.2 µM ([4]; 0.200000 μM) of 89.6%, an inhibition at 1 µM ([4]; 1.000000 μM) of 90.5% and an inhibition at 5 µM ([4]; 5.000000 μM) of 88.8%.
